Experimental data: patent US20260294940A1, “PHOSPHORUS-CONTAINING COMPOUNDS FOR TREATING INFLAMMATORY BOWEL DIESEASE” (VivaVision Biotech, Inc., priority 2022, published 2026)

Experiments:
Assay type in all cases: in vivo, Balb/c mice
IFN-γ = IFN-γ level in oxazolone-induced colitis mice (cytometric bead array); conditions: Day 9, PO BID 5 days, compound A30 1, 5 or 25 mg/kg, tofacitinib 10 mg/kg; for IFN-γ level (intestinal mucosa): FIG. 8; for IFN-γ level (serum): FIG. 10
Method: (§1) Compound A30 was evaluated in an oxazolone-induced colitis murine model, along with tofacitinib. Boirivant et al., J. Exp. Med. 1998, 188, 1929-39. Balb/c mice were randomly divided into 6 groups according to Table 1:4 treatment groups (Treatment Groups), 1 vehicle group (Vehicle Group), and 1 sham group (Sham Group). The mice in Treatment and Vehicle Groups were sensitized with 200 μL of 2% oxazolone in acetone and olive oil (1:4), followed by injection of 100 μL of 1.5% oxazolone into the rectum of each mouse on Day 5 after sensitization. The mice in Sham Group were sensitized with 200 μL of a mixture of acetone and olive oil (1:4) without oxazolone, followed by injection of 100 μL of 50% ethanol/water into the rectum of each mouse on Day 5 after sensitization. Before the injection into the rectum, each mouse was anesthetized intraperitoneally with tribromoethanol (0.3 mL, 1.25%). From Days 4 to 8 after sensitization, the mice in Sham and Vehicle Groups were each given 0.5% CMC-Na by gavage, and the mice in Treatment Groups were each given by gavage tofacitinib or compound A30 in 0.5% CMC-Na, respectively, according to the dosing schedule shown in Table 1.
(§2) On Day 9 after sensitization, each mouse was euthanized and blood was collected from the heart. A serum was prepared and frozen for the determination of inflammatory factors.
(§3) The colon of each mouse was collected and photographed, and the colon length was measured and weighed after the removal of the content of the colon. A part of each colon collected was fixed using the Swiss roll technique in neutral paraformaldehyde for pathological scoring (Table 3) as described in Bialkowska et al., J. Vis. Exp. 2016, 113, e54161. The rest of the colon mucosa of each mouse was scraped and frozen for the determination of inflammatory factors.
(§4) The IFN-γ and TNFα levels were analyzed using a BD™ cytometric bead array (CBA) kit.

[1] = system: oxazolone-induced colitis mice; test: Oxazolone-induced acute colitis in mice for ulcerative colitis (bodyweight, DAI, colon weight, length and density); conditions: PO BID 5 days, compound A30 1, 5 or 25 mg/kg, tofacitinib 10 mg/kg; for colon weight / colon length / colon density: Day 9 after sensitization; for colon weight: FIG. 3; for colon length: FIG. 4; for colon density: FIG. 5; for bodyweight change: FIG. 1; for DAI score: FIG. 2
Method: as §1
The bodyweight of each mouse was measured daily. From Day 4 after sensitization, the fecal property and occult blood as determined with a fecal occult blood test (FOBT) of each mouse were measured daily to calculate a disease activity index (DAI) according to Table 2.
as §2, §3
Due to the inflammation, it is expected that the colon of an oxazolone-induced colitis mouse has an […], and increased density.

TNF-α = TNF-α level in oxazolone-induced colitis mice (cytometric bead array); conditions: Day 9, PO BID 5 days, compound A30 1, 5 or 25 mg/kg, tofacitinib 10 mg/kg; for TNF-α level (intestinal mucosa): FIG. 7; for TNF-α level (serum): FIG. 9
Method: as §1, §2, §3, §4

| SMILES | IFN-γ level (intestinal mucosa) (IFN-γ) | IFN-γ level (serum) (IFN-γ) | colon weight [1] | colon length [1] | colon density [1] | bodyweight change [1] | DAI score [1] | TNF-α level (intestinal mucosa) (TNF-α) | TNF-α level (serum) (TNF-α) |
| --- | --- | --- | --- | --- | --- | --- | --- | --- | --- |
| C[P@](=O)(CCc1cc(Cl)c(C(=O)N[C@@H](Cc2cccc(S(C)(=O)=O)c2)C(=O)O)c(Cl)c1)c1cccc(O)c1 [compound A30, (S)-2-(2,6-dichloro-4-(2-((S)-(3-hydroxyphenyl)(methyl)phosphoryl)ethyl)benz-amido)-3-(3-(methylsulfonyl)phenyl)propanoic acid] | lowered | lowered | able to reverse the disease effects | able to reverse the disease effects | able to reverse the disease effects | slowed the bodyweight loss | improved the DAI score | lowered | lowered |
| C[C@@H]1CCN(C(=O)CC#N)C[C@@H]1N(C)c1ncnc2[nH]ccc12 [tofacitinib] | lowered | lowered | able to reverse the disease effects | able to reverse the disease effects | able to reverse the disease effects | slowed the bodyweight loss | improved the DAI score | lowered | lowered |
